Patent US9115093B2, “Substituted bicyclic dihydropyrimidinones and their use as inhibitors of neutrophil elastase activity” (Boehringer Ingelheim International GmbH, priority 2013, dated 2015)

Experiments:
[1] = Metabolic stability with human hepatocytes; assay type: in vitro ADME; details: human hepatocyte suspension, 1 μM, scaled with well stirred model
Method: Assay for the Determination of Metabolic Stability with Human Hepatocytes
The metabolic degradation of the test compound is assayed in a human hepatocyte suspension. Human hepatocytes (typically cryopreserved) are incubated in an appropriate buffer system (e.g. Dulbecco's modified eagle medium plus 3.5 μg glucagon/500 mL, 2.5 mg insulin/500 mL and 3.75 mg/500 mL hydrocortison) containing 5% species serum. Following a (typically) […] preincubation in an incubator (37° C., 10% CO2), 5 μl of test compound solution (80 μM; from 2 mM stock solution in DMSO diluted 1:25 with medium) are added into 395 μl hepatocyte suspension (cell density in the range 0.25-5*10^6 cells/mL, typically 1*10^6 cells/mL; final concentration of test compound 1 μM, final DMSO concentration […]). The cells are incubated for six hours (incubator, orbital shaker) and samples (25 μl) are taken at 0, 0.5, 1, 2, 4 and 6 hours. Samples are transferred into acetonitrile and pelleted by centrifugation (5 min). The supernatant is transferred to a new 96-deepwell plate, evaporated under nitrogen and resuspended. The decline of parent compound is analyzed by LC-MS/MS.
The intrinsic clearance CL_[…] is calculated as follows: CL_[…]=Dose/AUC=(C0/CD)/(AUD+clast/k)*1′000/60 (C0: initial concentration in the incubation [μM], CD: cell density of vital cells [10^6 cells/mL], AUD: area under the data [μM*h], clast: concentration of last data point [μM], k: slope of the regression line for parent decline [h^−1])
The calculated in vitro hepatic intrinsic clearance can be scaled up to the intrinsic in vivo hepatic clearance and used to predict hepatic in vivo blood clearance (CL) by the use of a is liver model (well stirred model): CL_[…]_INVIVO [ml/min/kg]=(CL_[…] [μL/min/10^6 cells]* hepatocellularity[10^6 cells/g liver]*liver factor[g/kg bodyweight])/1′000 CL[ml/min/kg]=CL_[…]_INVIVO [ml/min/kg]*hepatic blood flow [ml/min/kg]/(CL_[…]_INVIVO [ml/min/kg]+hepatic blood flow [ml/min/kg]) Qh[%]=CL[ml/min/kg]/hepatic blood flow[ml/min/kg]) (Hepatocellularity, human: 120*10^6 cells/g liver; lver factor, human: 25.7 g/kg bodyweight; blood flow, human: 21 ml/(min*kg))
The predicted human hepatic in vivo blood clearance (CL) of selected compounds in the metabolic stability assay described above are listed in Table 16.

[2] = Drug transport across human CACO-2 cells; assay type: in vitro ADME
From the text: Assay for Determination of Drug Transport Across Human CACO-2 Cells
The assay provides information on the potential of a compound to pass the cell membrane, on the extent of oral absorption as well as on whether the compound is actively transported by uptake and/or efflux transporters. For the measurement of permeability across polarized, confluent human cancer colon carcinoma cells 2 (Caco-2) cell monolayers grown on permeable filter supports are used as the in vitro absorption model. Apparent permeability coefficients (PE) of the compounds across the Caco-2 monolayers are measured (pH 7.2, 37° C.) in apical-to-basal (AB) (absorptive) and basal-to-apical (BA) (secretory) transport direction. AB permeability (PEAB) represents drug absorption from the intestine into the blood and BA permeability (PEBA) drug secretion from the blood back into the intestine via both passive permeability as well as active transport mechanisms mediated by efflux and uptake transporters that are expressed on the Caco-2 cells. The compounds are assigned to permeability/absorption classes by comparison of the AB permeabilities with the AB permeabilities of reference compounds with known in vitro permeability and oral absorption in the human. Identical or similar permeabilities in both transport directions indicate passive permeation, vectorial permeability points to additional active transport mechanisms. […] Active transport is concentration-dependently saturable.
Caco-2 cells (1−2*10^5 cells/cm^2 area) are seeded on filter inserts (Costar transwell polycarbonate or PET filters, […] pore size) and cultured (DMEM) for 10 to 25 days. Compounds are dissolved in appropriate solvent (like DMSO, 1-20 mM stock solutions). Stock solutions are diluted with HTP-4 buffer (128.13 mM NaCl, 5.36 mM KCl, 1 mM MgSO4, 1.8 mM CaCl2, 4.17 mM NaHCO3, 1.19 mM Na2HPO4×7H2O, 0.41 mM NaH2PO4×H2O, 15 mM HEPES, 20 mM glucose, pH 7.2) to prepare the transport solutions (typically […] compound, final DMSO <=0.5%). The transport solution (TL) is applied to the apical or basolateral donor side for measuring A-B or B-A permeability (3 filter replicates), respectively. The receiver side contains HTP-4 buffer supplemented with 2% BSA. Samples are collected at the start and end of experiment from the donor and at various time intervals for up to 2 hours also from the receiver side for concentration measurement by LC-MS/MS or scintillation counting. Sampled receiver volumes are is replaced with fresh receiver solution.
The apparent permeability coefficients (PEAB and PEBA) and efflux ratios (PEBA/PEAB) of selected compounds in the Caco-2 drug transport assay described above are listed in Table 17.

Papp A→B at 10 nM ([2]; Caco-2 monolayers, apical-to-basal, pH 7.2, 37° C., read-out: PEAB) | Papp B→A at 10 nM ([2]; Caco-2 monolayers, basal-to-apical, pH 7.2, 37° C., read-out: PEBA) | efflux ratio at 10 nM ([2]; pH 7.2, Caco-2, PEBA/PEAB) | Compound | CL (predicted human hepatic in vivo blood clearance) [1]
 |  |  | CS(=O)(=O)c1cc(C#N)ccc1[C@@H]1C2=C(CCCC2=O)N(c2cccc(C(F)(F)F)c2)C(=O)N1C(=O)NCC(F)F [Example 75.7] | 0 mL/min/kg
 |  |  | CC(C)NC(=O)N1C(=O)N(c2cccc(C(F)(F)F)c2)C2=C(C(=O)CCC2)[C@H]1c1ccc(C#N)cc1S(C)(=O)=O [Example 75.3] | 0 mL/min/kg
12.8 ×10⁻⁶ cm/s | 76.5 ×10⁻⁶ cm/s | 6 | N#Cc1ccc(C2C3=C(CCCC3=O)N(c3cccc(C(F)(F)F)c3)C(=O)N2C(=O)NCCO)cc1 (stereo not drawn) [Example 39.3] | 
 |  |  | CS(=O)(=O)CCNC(=O)N1C(=O)N(c2cccc(C(F)(F)F)c2)C2=C(C(=O)CCC2)C1c1ccc(C#N)cc1 (stereo not drawn) [Example 39.19] | 0 mL/min/kg
